Experiments:
[1] = tested on: V79 (Chinese Hamster Lung Fibroblasts) cells; assay: In vitro cytotoxicity assay (light EC50, Alamar blue); type: cell-based; conditions: Table 3 porphyrins, 24 h drug incubation, 532 nm, 1.25 J/cm^2, read-out: In Vitro EC50 Light
Summary of the method: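 V79 cells in phenol-free 5% FBS/DMEM exposed 24 h to photosensitizer at final 0.01–5.0 μM, six replicates, then washed and light-treated, with a dark plate as control. Survival by Alamar blue after 24 h dark incubation, read at 570/600 nm.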

[2] = tested on: normal skin of CD Hairless male rats; type: in vivo, rat; conditions: Table 3; time of last skin spot observed post injection; 1 μmol; 532 nm laser
Summary of the method: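 Liposomal egg yolk phospholipid photosensitizer given as single i.v. tail-vein bolus at 1, 1.5 and 2 μmol/kg; skin spots irradiated with 532 nm laser (150 mW/cm^2, 150J, 1 cm) at 1, 6, 24, 48, 96 hrs post injection. Value is time of last observed skin response spot.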

[3] = tested on: normal uninjured rat carotid arteries (medial and adventitial cell populations); assay: In vivo rat carotid artery acellularity after PDT; parameters: species or system Sprague Dawley rats; conditions: Table 3; drug dose 1 μMol; 50 J/cm^2; 3 days post treatment
Summary of the method: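 Metallated photosensitizers light-activated in normal uninjured rat left common carotid via balloon catheter introduced through femoral arteriotomy under isoflurane; excitation 575 nm (Ga, Zn, Al, Sn) or 532 nm (Pt). Arteries harvested 3 days post-treatment, H&E-stained; medial and adventitial cell density assessed by light microscopy.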

[4] = tested on: skin of Sprague Dawley rats; assay: Topical in-vivo skin response, Sprague Dawley rats (single topical dermal application)
[5] = Systemic toxicity in animals near the therapeutic dose; conditions: 3× the therapeutic dose

SMILES | EC50 [1] [nM] | Normal skin Response (1 μmol) [2] [h] | Max % rat Artery Accelularity [3] [%] | delay of hair regrowth ([4]; topical 0.14 mg/cm^2) | skin response ([4]; topical 0.14 mg/cm^2) | clearing formation of the skin first seen, time post light treatment ([4]; topical 0.28 mg/cm^2) [days] | delay of hair regrowth in the treatment site post light treatment ([4]; topical 0.28 mg/cm^2) | persistence of clearing formation of the skin ([4]; topical 0.28 mg/cm^2) | clearing formation, duration ([4]; topical 0.6 mg/cm^2) | skin responses (small, slight eschar), duration post light treatment ([4]; topical 0.6 mg/cm^2) | time hair did not regrow in the treatment site post light treatment ([4]; topical 0.6 mg/cm^2) | variable clearing persisting post light treatment ([4]; topical 0.6 mg/cm^2) | toxicity in animals [5]
CCCOC(=O)CCC1=C(C)c2cc3[n-]c(cc4nc(cc5[n-]c(cc1n2)c(CCC(=O)OCCC)c5C)C(CC)=C4C)c(CC)c3C.[Cl-].[Ga+3] [Example 3, Gallium Chloride Mesoporphyrin Dipropyl Ester] | 60 | 6 | 85 | approximately 21 days | no skin response | 7 | approximately 38 days | at least 28 days | at least 30 days | approximately 10 days | approximately 38 days | up to 3 months | 
CCC1=C(C)c2cc3[n-]c(cc4nc(cc5[n-]c(cc1n2)c(C)c5CC)C(C)=C4CCCC(=O)OC)c(CCCC(=O)OC)c3C.[Cl-].[In+3] [Example 46, Indium Chloride 8,13-diethyl-3,7,12,17-tetramethylporphyrin-2,18-di(butanoic acid methyl ester)] | 40 | 48 | 90 |  |  |  |  |  |  |  |  |  | death occurs in the animals at 3× the therapeutic dose

Source: patent publication US6827926B2, “Metallotetrapyrrolic photosensitizing agents for use in photodynamic therapy” (Miravant Pharmaceuticals, Inc., priority 2001, dated 2004)
